# Assay results from US20240002391A1, “4-ALKOXYPYRROLO[2,1-F][1,2,4]TRIAZINES AND PREPARATION AND USES THEREOF” (BioSplice Therapeutics, Inc., priority 2022, published 2024).
# Target: recombinant DYRK1A kinase (Homo sapiens (Human), UniProt Q13627)
# Assay: DYRK1A kinase assay (Ser/Thr 18 peptide Z-lyte FRET)
# Type: biochemical
# Conditions: DYRK1A kinase activity, Z-lyte Ser/Thr 18 peptide, 15 μM ATP; method text calls the value IC50; read-out: EC50 (the source's name)
# Method in brief: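 Steps: combine 0.25 μg/mL kinase, 15 μM ATP and 4 μM peptide with test compound; incubate 1 h at room temperature; add diluted development reagent for another hour; read coumarin and fluorescein emission at Ex 400. The emission ratio yields percent phosphorylation, from which IC50 is derived.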
row,Compound,IC50 [nM]
1,"COc1nc(N[C@H]2C[C@@](C)(C(=O)NC3CC3)C2)nn2ccc(-c3ccc4nnn(C)c4c3)c12 [Compound 217, cis-N-Cyclopropyl-3-((4-methoxy-5-(1-methyl-1H-benzo[d][1,2,3]triazol-6-yl)pyrrolo[2,1-f][1,2,4]triazin-2-yl)amino)-1-methylcyclobutane-1-carboxamide]",9.3
2,"COc1nc(N[C@H]2CCN(CCO)C[C@H]2F)nn2ccc(-c3cc(F)c4nc(C)n(CC(F)F)c4c3)c12 [Compound 519, 2-((3R,4S)-4-((5-(1-(2,2-Difluoroethyl)-4-fluoro-2-methyl-1H-benzo[d]imidazol-6-yl)-4-methoxypyrrolo[2,1-f][1,2,4]triazin-2-yl)amino)-3-fluoropiperidin-1-yl)ethan-1-ol]",2.7
3,"COc1nc(N[C@@H]2CCN(C)C[C@@H]2F)nn2ccc(-c3ccn4nccc4c3)c12 [Compound 31, N-((3S,4R)-3-fluoro-1-methylpiperidin-4-yl)-4-methoxy-5-(pyrazolo[1,5-a]pyridin-5-yl)pyrrolo[2,1-f][1,2,4]triazin-2-amine]",7.7
4,"COc1nc(NC2CCN(C3COC3)CC2)nn2ccc(-c3ccc4nccnc4c3)c12 [Compound 365, 4-Methoxy-N-(1-(oxetan-3-yl)piperidin-4-yl)-5-(quinoxalin-6-yl)pyrrolo[2,1-f][1,2,4]triazin-2-amine]",2.8
5,"COc1nc(N[C@H]2CCN(CC(C)(C)O)C[C@H]2F)nn2cc(F)c(-c3ccc4ncccc4c3)c12 [Compound 1058, 1-((3R,4S)-3-Fluoro-4-((6-fluoro-4-methoxy-5-(quinolin-6-yl)pyrrolo[2,1-f][1,2,4]triazin-2-yl)amino)piperidin-1-yl)-2-methylpropan-2-ol]",2.3
6,"COc1nc(NC2CCC(F)(F)CC2)nn2ccc(-c3ccc4ncnn4c3)c12 [Compound 193, 5-([1,2,4]Triazolo[1,5-a]pyridin-6-yl)-N-(4,4-difluorocyclohexyl)-4-methoxypyrrolo[2,1-f][1,2,4]triazin-2-amine]",19.9
7,"COc1nc(N[C@H]2C[C@](C)(C(=O)NC3CC3)C2)nn2ccc(-c3ccc4nc(C)n(CC(F)F)c4c3)c12 [Compound 503, trans-N-Cyclopropyl-3-((5-(1-(2,2-difluoroethyl)-2-methyl-1H-benzo[d]imidazol-6-yl)-4-methoxypyrrolo[2,1-f][1,2,4]triazin-2-yl)amino)-1-methylcyclobutane-1-carboxamide]",2.3
8,"COc1nc(N[C@H]2CC[C@](C)(O)CC2)nn2ccc(-c3ccc4nncn4c3)c12 [Compound 187, trans-4-((5-([1,2,4]Triazolo[4,3-a]pyridin-6-yl)-4-methoxypyrrolo[2,1-f][1,2,4]triazin-2-yl)amino)-1-methylcyclohexan-1-ol]",100
9,"COc1nc(N[C@H]2CC[C@@H](OC(F)(F)F)CC2)nn2ccc(-c3cnc4nccn4c3)c12 [Compound 252, 5-(Imidazo[1,2-a]pyrimidin-6-yl)-4-methoxy-N-(cis-4-(trifluoromethoxy)cyclohexyl)pyrrolo[2,1-f][1,2,4]triazin-2-amine]",2.5
10,"COc1nc(N[C@@H]2CCN(C3COC3)CC2(F)F)nn2ccc(-c3cc(F)c4nccn4c3)c12 [Compound 435, (R)—N-(3,3-Difluoro-1-(oxetan-3-yl)piperidin-4-yl)-5-(8-fluoroimidazo[1,2-a]pyridin-6-yl)-4-methoxypyrrolo[2,1-f][1,2,4]triazin-2-amine]",8.9
11,"COc1nc(N[C@@H]2CN(C)C[C@@H]2F)nn2ccc(-c3cnc4nccn4c3)c12 [Compound 262, N-((3R,4S)-4-Fluoro-1-methylpyrrolidin-3-yl)-5-(imidazo[1,2-a]pyrimidin-6-yl)-4-methoxypyrrolo[2,1-f][1,2,4]triazin-2-amine]",3.2
12,"COc1nc(N[C@H]2CCN(C3COC3)C[C@H]2F)nn2ccc(-c3cnc4nccn4c3)c12 [Compound 270, N-((3R,4S)-3-Fluoro-1-(oxetan-3-yl)piperidin-4-yl)-5-(imidazo[1,2-a]pyrimidin-6-yl)-4-methoxypyrrolo[2,1-f][1,2,4]triazin-2-amine]",5.1
13,"COc1nc(N[C@H]2C[C@@](C)(N(C)C)C2)nn2ccc(-c3ccc4nnn(C)c4c3)c12 [Compound 204, cis-N^3-(4-methoxy-5-(1-methyl-1H-benzo[d][1,2,3]triazol-6-yl)pyrrolo[2,1-f][1,2,4]triazin-2-yl)-N^1,N^1,1-trimethylcyclobutane-1,3-diamine]",3.5
14,"COc1nc(N[C@H]2C[C@@H](OCCO)C2)nn2ccc(-c3ccc4nccnc4c3)c12 [Compound 329, 2-(cis-3-((4-Methoxy-5-(quinoxalin-6-yl)pyrrolo[2,1-f][1,2,4]triazin-2-yl)amino)cyclobutoxy)ethan-1-ol]",1.9

# Next, values leading:
row,IC50 [nM],Compound
1,1.8,"COc1nc(N[C@@H]2CCN(C3COC3)CC2(F)F)nn2ccc(-c3cc(F)c4nnn(CC(F)F)c4c3)c12 [Compound 822, (R)—N-(3,3-Difluoro-1-(oxetan-3-yl)piperidin-4-yl)-5-(1-(2,2-difluoroethyl)-4-fluoro-1H-benzo[d][1,2,3]triazol-6-yl)-4-methoxypyrrolo[2,1-f][1,2,4]triazin-2-amine]"
2,1.6,"COc1nc(N[C@@H]2CCN(C(C)=O)CC2(F)F)nn2ccc(-c3cc(F)c4nc(C)n(C(C)C)c4c3)c12 [Compound 550, (R)-1-(3,3-Difluoro-4-((5-(4-fluoro-1-isopropyl-2-methyl-1H-benzo[d]imidazol-6-yl)-4-methoxypyrrolo[2,1-f][1,2,4]triazin-2-yl)amino)piperidin-1-yl)ethan-1-one]"
3,1.1,"COc1nc(N[C@H]2CCN(C3COC3)C[C@H]2F)nn2ccc(-c3ccc4nnn(CCF)c4c3)c12 [Compound 666, N-((3R,4S)-3-Fluoro-1-(oxetan-3-yl)piperidin-4-yl)-5-(1-(2-fluoroethyl)-1H-benzo[d][1,2,3]triazol-6-yl)-4-methoxypyrrolo[2,1-f][1,2,4]triazin-2-amine]"
4,1.1,"COc1nc(N[C@H]2CCN(CCO)C[C@H]2F)nn2ccc(-c3cc(F)c4nc(C)n(C(C)C)c4c3)c12 [Compound 542, 2-((3R,4S)-3-Fluoro-4-((5-(4-fluoro-1-isopropyl-2-methyl-1H-benzo[d]imidazol-6-yl)-4-methoxypyrrolo[2,1-f][1,2,4]triazin-2-yl)amino)piperidin-1-yl)ethan-1-ol]"
5,1.6,"COc1nc(N[C@@H]2CCN(C)CC2(F)F)nn2ccc(-c3ccc4nnn(CC(F)F)c4c3)c12 [Compound 777, (R)—N-(3,3-Difluoro-1-methylpiperidin-4-yl)-5-(1-(2,2-difluoroethyl)-1H-benzo[d][1,2,3]triazol-6-yl)-4-methoxypyrrolo[2,1-f][1,2,4]triazin-2-amine]"
6,0.8,"COc1nc(N[C@H]2CCN(C3COC3)C[C@H]2F)nn2ccc(-c3cc(F)c4nnn(CC(F)F)c4c3)c12 [Compound 818, 5-(1-(2,2-Difluoroethyl)-4-fluoro-1H-benzo[d][1,2,3]triazol-6-yl)-N-((3R,4S)-3-fluoro-1-(oxetan-3-yl)piperidin-4-yl)-4-methoxypyrrolo[2,1-f][1,2,4]triazin-2-amine]"
7,1.9,"COc1nc(N[C@H]2CCN(C3COC3)C[C@H]2F)nn2cc(F)c(-c3ccc4ncccc4c3)c12 [Compound 1059, 6-Fluoro-N-((3R,4S)-3-fluoro-1-(oxetan-3-yl)piperidin-4-yl)-4-methoxy-5-(quinolin-6-yl)pyrrolo[2,1-f][1,2,4]triazin-2-amine]"
